In US12617797B2, “Substituted pyrazolo [1,5-a]pyrimidines having multimodal activity against pain” (ESTEVE PHARMACEUTICALS, S.A., priority 2020, dated 2026):

Legend:
[1] = biological target: Human α2δ-1 subunit of Cav2.2 calcium channel (Homo sapiens, UniProt P54289); test: Human α2δ-1 subunit of Cav2.2 calcium channel assay ([3H]-gabapentin binding); conditions: binding to the α2δ-1 subunit of voltage-gated calcium channels expressed as Ki; + also covers inhibition between 1% and 50%
Method: Biological Activity Pharmacological Study Human α2δ-1 Subunit of Cav2.2 Calcium Channel Assay
Human α2δ-1 enriched membranes (2.5 μg) were incubated with 15 nM of radiolabeled [^3H]-Gabapentin in assay buffer containing Hepes-KOH 10 mM, pH 7.4. NSB (non specific binding) was measured by adding 10 μM pregabalin. The binding of the test compound was measured at either one concentration (% inhibition at 1 or 10 μM) or five different concentrations to determine affinity values (Ki). After 60 min incubation at 27° C., binding reaction was terminated by filtering through Multiscreen GF/C (Millipore) presoaked in 0.5% polyethyleneimine in Vacuum Manifold Station, followed by 3 washes with ice-cold filtration buffer containing 50 mM Tris-HCl, pH 7.4. Filter plates were dried at 60° C. for 1 h and 30 μL of scintillation cocktail were added to each well before radioactivity reading. Readings were performed in a Trilux 1450 Microbeta radioactive counter (Perkin Elmer).

Human σ1 receptor = biological target: T1, Human σ1 receptor (Homo sapiens, UniProt Q99720); test: Human σ1 receptor radioligand assay ([3H](+)-pentazocine binding, transfected HEK-293 membranes); conditions: binding to σ1 receptor expressed as Ki; + also covers inhibition between 1% and 50%; read-out: σ-1 binding
T1 construct: expressed in transfected cells; host or cells: HEK-293
T1 sequence (Q99720 whole entry): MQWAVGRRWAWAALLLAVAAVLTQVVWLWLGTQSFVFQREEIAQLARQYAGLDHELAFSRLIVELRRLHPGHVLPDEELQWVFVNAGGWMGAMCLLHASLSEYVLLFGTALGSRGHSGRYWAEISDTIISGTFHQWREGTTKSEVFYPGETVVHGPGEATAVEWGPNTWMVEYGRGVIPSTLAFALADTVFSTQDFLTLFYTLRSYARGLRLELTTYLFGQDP
Method: Human σ1 Receptor Radioligand Assay
Transfected HEK-293 membranes (7 μg) were incubated with 5 nM of [^3H](+)-pentazocine in assay buffer containing Tris-HCl 50 mM at pH 8. NBS (non-specific binding) was measured by adding 10 μM haloperidol. The binding of the test compound was measured at either one concentration (% inhibition at 1 or 10 μM) or five different concentrations to determine affinity values (Ki). Plates were incubated at 37° C. for 120 minutes. After the incubation period, the reaction mix was then transferred to MultiScreen HTS, FC plates (Millipore), filtered and plates were washed 3 times with ice-cold 10 mM Tris-HCL (pH7.4). Filters were dried and counted at approximately 40% efficiency in a MicroBeta scintillation counter (Perkin-Elmer) using EcoScint liquid scintillation cocktail.

Human α2δ-1 subunit of Cav2.2 calcium channel, sequence (P54289 25-1103): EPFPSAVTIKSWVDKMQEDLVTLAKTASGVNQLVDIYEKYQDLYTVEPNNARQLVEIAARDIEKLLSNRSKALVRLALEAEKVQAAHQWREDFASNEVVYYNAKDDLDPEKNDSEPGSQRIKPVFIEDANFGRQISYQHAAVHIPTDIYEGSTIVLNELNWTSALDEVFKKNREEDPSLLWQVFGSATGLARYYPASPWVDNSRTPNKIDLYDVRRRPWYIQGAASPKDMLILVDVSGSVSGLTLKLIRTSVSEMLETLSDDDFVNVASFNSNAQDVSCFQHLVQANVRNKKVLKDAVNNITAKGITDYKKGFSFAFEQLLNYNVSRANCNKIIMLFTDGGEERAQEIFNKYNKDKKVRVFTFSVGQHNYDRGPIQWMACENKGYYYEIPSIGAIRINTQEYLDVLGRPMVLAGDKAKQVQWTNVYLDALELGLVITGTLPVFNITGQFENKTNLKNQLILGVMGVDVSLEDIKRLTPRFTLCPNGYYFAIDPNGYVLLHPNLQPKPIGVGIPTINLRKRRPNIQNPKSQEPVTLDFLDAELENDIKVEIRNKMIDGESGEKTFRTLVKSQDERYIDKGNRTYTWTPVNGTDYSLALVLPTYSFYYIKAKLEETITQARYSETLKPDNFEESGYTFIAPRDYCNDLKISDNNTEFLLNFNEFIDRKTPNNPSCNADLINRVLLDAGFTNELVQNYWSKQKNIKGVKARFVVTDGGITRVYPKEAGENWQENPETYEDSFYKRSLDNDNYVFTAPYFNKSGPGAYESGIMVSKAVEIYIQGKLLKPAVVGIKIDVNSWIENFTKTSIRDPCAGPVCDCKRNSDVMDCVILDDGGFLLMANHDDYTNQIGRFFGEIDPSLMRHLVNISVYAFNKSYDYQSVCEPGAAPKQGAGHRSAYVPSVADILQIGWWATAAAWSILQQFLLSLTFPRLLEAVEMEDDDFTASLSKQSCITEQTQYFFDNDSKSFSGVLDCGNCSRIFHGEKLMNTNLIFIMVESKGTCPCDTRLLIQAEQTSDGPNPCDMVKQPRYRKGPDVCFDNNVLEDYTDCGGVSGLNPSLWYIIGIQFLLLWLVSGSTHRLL

Ki [1] [nM] | Ki (Human σ1 receptor) [nM] | Compound
> 5000 | > 1000 | Cn1cc(-c2cc3nccc(C4CCCN(Cc5ccccc5)C4)n3n2)cn1 (stereo not drawn) [Example 25, 7-(1-Benzylpiperidin-3-yl)-2-(1-methyl-1H-pyrazol-4-yl)pyrazolo[1,5-a]pyrimidine]
< 500 | > 1000 | c1ccc(CN2CCCC(c3ccnc4cc(-c5ccccn5)nn34)C2)cc1 (stereo not drawn) [Example 26, 7-(1-Benzylpiperidin-3-yl)-2-(pyridin-2-yl)pyrazolo[1,5-a]pyrimidine]
500 to 5000 | 500 to 1000 | COc1ncccc1-c1cc2nccc(C3CCCN(Cc4ccccc4)C3)n2n1 (stereo not drawn) [Example 27, 7-(1-Benzylpiperidin-3-yl)-2-(2-methoxypyridin-3-yl)pyrazolo[1,5-a]pyrimidine]
500 to 5000 | > 1000 | COc1ccc(-c2cc3nccc(C4CCCN(Cc5ccccc5)C4)n3n2)cn1 (stereo not drawn) [Example 28, 7-(1-Benzylpiperidin-3-yl)-2-(6-methoxypyridin-3-yl)pyrazolo[1,5-a]pyrimidine]
500 to 5000 | > 1000 | COc1ccccc1-c1cc2nccc(C3CCCN(Cc4ccccc4)C3)n2n1 (stereo not drawn) [Example 29, 7-(1-Benzylpiperidin-3-yl)-2-(2-methoxyphenyl)pyrazolo[1,5-a]pyrimidine]
> 5000 | > 1000 | COc1cccc(-c2cc3nccc(C4CCCN(Cc5ccccc5)C4)n3n2)n1 (stereo not drawn) [Example 30, 7-(1-Benzylpiperidin-3-yl)-2-(6-methoxypyridin-2-yl)pyrazolo[1,5-a]pyrimidine]
500 to 5000 | > 1000 | COc1cncc(-c2cc3nccc(C4CCCN(Cc5ccccc5)C4)n3n2)c1 (stereo not drawn) [Example 31, 7-(1-Benzylpiperidin-3-yl)-2-(5-methoxypyridin-3-yl)pyrazolo[1,5-a]pyrimidine]
> 5000 | > 1000 | COc1cc(-c2cc3nccc(C4CCCN(Cc5ccccc5)C4)n3n2)ccn1 (stereo not drawn) [Example 32, 7-(1-Benzylpiperidin-3-yl)-2-(2-methoxypyridin-4-yl)pyrazolo[1,5-a]pyrimidine]
500 to 5000 | > 1000 | COc1cnccc1-c1cc2nccc(C3CCCN(Cc4ccccc4)C3)n2n1 (stereo not drawn) [Example 33, 7-(1-Benzylpiperidin-3-yl)-2-(3-methoxypyridin-4-yl)pyrazolo[1,5-a]pyrimidine]
500 to 5000 | > 1000 | COc1ccncc1-c1cc2nccc(C3CCCN(Cc4ccccc4)C3)n2n1 (stereo not drawn) [Example 34, 7-(1-Benzylpiperidin-3-yl)-2-(4-methoxypyridin-3-yl)pyrazolo[1,5-a]pyrimidine]
> 5000 | 500 to 1000 | c1ccc(CN2CCCC(c3ccnc4c(-c5ccccc5)cnn34)C2)cc1 (stereo not drawn) [Example 35, 7-(1-Benzylpiperidin-3-yl)-3-phenylpyrazolo[1,5-a]pyrimidine]
500 to 5000 | 500 to 1000 | c1ccc(CN2CCCC(c3ccnc4c(-c5ccncc5)cnn34)C2)cc1 (stereo not drawn) [Example 36, 7-(1-Benzylpiperidin-3-yl)-3-(pyridin-4-yl)pyrazolo[1,5-a]pyrimidine]
500 to 5000 | > 1000 | c1ccc(CN2CCCC(c3ccnc4c(-c5cccnc5)cnn34)C2)cc1 (stereo not drawn) [Example 37, 7-(1-Benzylpiperidin-3-yl)-3-(pyridin-3-yl)pyrazolo[1,5-a]pyrimidine]
500 to 5000 | > 1000 | COc1cc(-c2cnn3c(C4CCCN(Cc5ccccc5)C4)ccnc23)ccn1 (stereo not drawn) [Example 38, 7-(1-Benzylpiperidin-3-yl)-3-(2-methoxypyridin-4-yl)pyrazolo[1,5-a]pyrimidine]
> 5000 | > 1000 | CCOc1ccc(-c2cnn3c(C4CCCN(Cc5ccccc5)C4)ccnc23)cc1 (stereo not drawn) [Example 39, 7-(1-Benzylpiperidin-3-yl)-3-(4-ethoxyphenyl)pyrazolo[1,5-a]pyrimidine]
500 to 5000 | > 1000 | COc1ncccc1-c1cnn2c(C3CCCN(Cc4ccccc4)C3)ccnc12 (stereo not drawn) [Example 40, 7-(1-Benzylpiperidin-3-yl)-3-(2-methoxypyridin-3-yl)pyrazolo[1,5-a]pyrimidine]
500 to 5000 | > 1000 | Cc1cnc2c(-c3ccncc3)cnn2c1C1CCCN(Cc2ccccc2)C1 (stereo not drawn) [Example 41, 7-(1-Benzylpiperidin-3-yl)-6-methyl-3-(pyridin-4-yl)pyrazolo[1,5-a]pyrimidine]

Ki [1] [nM] | Ki (Human σ1 receptor) [nM] | Compound
500 to 5000 | > 1000 | Cc1nn2c(C3CCCN(Cc4ccccc4)C3)ccnc2c1-c1ccncc1 (stereo not drawn) [Example 42, 7-(1-Benzylpiperidin-3-yl)-2-methyl-3-(pyridin-4-yl)pyrazolo[1,5-a]pyrimidine]
500 to 5000 | > 1000 | COc1ncccc1-c1c(C)nn2c(C3CCCN(Cc4ccccc4)C3)ccnc12 (stereo not drawn) [Example 43, 7-(1-Benzylpiperidin-3-yl)-3-(2-methoxypyridin-3-yl)-2-methylpyrazolo[1,5-a]pyrimidine]
> 5000 | > 1000 | Cc1nn2c(C3CCCN(Cc4ccccc4)C3)ccnc2c1-c1ccccc1 (stereo not drawn) [Example 44, 7-(1-Benzylpiperidin-3-yl)-2-methyl-3-phenylpyrazolo[1,5-a]pyrimidine]
> 5000 | 500 to 1000 | CCOc1ccc(-c2c(C)nn3c(C4CCCN(Cc5ccccc5)C4)ccnc23)cc1 (stereo not drawn) [Example 45, 7-(1-Benzylpiperidin-3-yl)-3-(4-ethoxyphenyl)-2-methylpyrazolo[1,5-a]pyrimidine]
500 to 5000 | > 1000 | COc1cc(-c2c(C)nn3c(C4CCCN(Cc5ccccc5)C4)ccnc23)ccn1 (stereo not drawn) [Example 46, 7-(1-Benzylpiperidin-3-yl)-3-(2-methoxypyridin-4-yl)-2-methylpyrazolo[1,5-a]pyrimidine]
> 5000 | > 1000 | Cc1nn2c(C3CCCN(Cc4ccccc4)C3)ccnc2c1-c1ccc(N(C)C)cc1 (stereo not drawn) [Example 47, 4-(7-(1-Benzylpiperidin-3-yl)-2-methylpyrazolo[1,5-a]pyrimidin-3-yl)-N,N-dimethylaniline]
> 5000 | > 1000 | Cc1nn2c(C3CCCN(Cc4ccccc4)C3)ccnc2c1-c1ccccc1F (stereo not drawn) [Example 48, 7-(1-Benzylpiperidin-3-yl)-3-(2-fluorophenyl)-2-methylpyrazolo[1,5-a]pyrimidine]
> 5000 | > 1000 | Cc1cnccc1-c1c(C)nn2c(C3CCCN(Cc4ccccc4)C3)ccnc12 (stereo not drawn) [Example 49, 7-(1-Benzylpiperidin-3-yl)-2-methyl-3-(3-methylpyridin-4-yl)pyrazolo[1,5-a]pyrimidine]
500 to 5000 | > 1000 | Cc1nn2c(C3CCCN(Cc4ccccc4)C3)ccnc2c1-c1ccnc(F)c1 (stereo not drawn) [Example 50, 7-(1-Benzylpiperidin-3-yl)-3-(2-fluoropyridin-4-yl)-2-methylpyrazolo[1,5-a]pyrimidine]
500 to 5000 | 500 to 1000 | Cc1cc(-c2c(C)nn3c(C4CCCN(Cc5ccccc5)C4)ccnc23)ccn1 (stereo not drawn) [Example 51, 7-(1-Benzylpiperidin-3-yl)-2-methyl-3-(2-methylpyridin-4-yl)pyrazolo[1,5-a]pyrimidine]
500 to 5000 | > 1000 | Cc1nn2c(C3CCCN(Cc4ccccc4)C3)ccnc2c1-c1ccncc1F (stereo not drawn) [Example 52, 7-(1-Benzylpiperidin-3-yl)-3-(3-fluoropyridin-4-yl)-2-methylpyrazolo[1,5-a]pyrimidine]
500 to 5000 | > 1000 | Cc1nn2c(C3CCCN(Cc4ccccc4)C3)ccnc2c1-c1ccnc(C(F)(F)F)c1 (stereo not drawn) [Example 53, 7-(1-Benzylpiperidin-3-yl)-2-methyl-3-(2-(trifluoromethyl)pyridin-4-yl)pyrazolo[1,5-a]pyrimidine]
500 to 5000 | > 1000 | CCc1cc(-c2c(C)nn3c(C4CCCN(Cc5ccccc5)C4)ccnc23)ccn1 (stereo not drawn) [Example 54, 7-(1-Benzylpiperidin-3-yl)-3-(2-ethylpyridin-4-yl)-2-methylpyrazolo[1,5-a]pyrimidine]
500 to 5000 | > 1000 | Cc1nc(-c2cccc(-c3c(C)nn4c(C5CCCN(Cc6ccccc6)C5)ccnc34)c2)no1 (stereo not drawn) [Example 55, 3-(3-(7-(1-Benzylpiperidin-3-yl)-2-methylpyrazolo[1,5-a]pyrimidin-3-yl)phenyl)-5-methyl-1,2,4-oxadiazole]
500 to 5000 | > 1000 | Cc1nnc(-c2cccc(-c3c(C)nn4c(C5CCCN(Cc6ccccc6)C5)ccnc34)c2)o1 (stereo not drawn) [Example 56, 2-(3-(7-(1-Benzylpiperidin-3-yl)-2-methylpyrazolo[1,5-a]pyrimidin-3-yl)phenyl)-5-methyl-1,3,4-oxadiazole]
500 to 5000 | > 1000 | COc1cnccc1-c1c(C)nn2c(C3CCCN(Cc4ccccc4)C3)ccnc12 (stereo not drawn) [Example 57, 7-(1-Benzylpiperidin-3-yl)-3-(3-methoxypyridin-4-yl)-2-methylpyrazolo[1,5-a]pyrimidine]
